{
  "source": "paper PMC5675611",
  "about": "“GZD824 suppresses the growth of human B cell precursor acute lymphoblastic leukemia cells by inhibiting the SRC kinase and PI3K/AKT pathways” (Oncotarget, 2016)",
  "key": {"[1]": {"system": "SUPB15", "experiment": "CCK8 viability / proliferation assay", "format": "cell-based", "settings": "Homo sapiens, SUP-B15, 24 h, read-out: IC50, inhibition of proliferation", "description": "(§1) Viability was calculated relative to time-matched untreated controls. D824 is short for GZD824 in the following figure. B. Left: representative flow cytometric analysis of NALM6 and SUPB15 cells treated with DMSO, 1μM, or 3μM of GZD824 for 24 hours. Right: Statistical analysis of AnnexinV-positive cells in GZD824 treated NALM6 and SUPB15 cells. C. Left: representative images of cell cycle distribution in NALM6 and SUPB15 cells treated with DMSO or 3μM of GZD824 for 24 hours. Right: Statistical analysis of the distribution of cells in G0/G1 phases in GZD824 treated cells. Data are shown as the mean ± SEM (error bars) from three independent experiments. Significance values: ^*P<0.05; ^**P<0.01; ^***P<0.001. […] For each plot they are listed in the order upper left, upper right, lower left, lower right."}, "[2]": {"system": "NALM6", "experiment": "CCK8 viability / proliferation assay", "format": "cell-based", "settings": "Homo sapiens, NALM-6, 24 h, read-out: IC50, inhibition of proliferation", "description": "as §1"}, "[3]": {"system": "STAT3 target genes (BCL-XL, CCND1, CDK4, CDKN1A)", "experiment": "qRT-PCR of STAT3 target genes", "format": "cell-based, human", "settings": "3 μM, 24 hours, normalized to GAPDH, vs control", "description": "Figure 5 GZD824 inhibits the SRC kinase in pre-B ALL cells A-C. Western blot analysis of […]-treated NALM6 cells. Cells were treated with DMSO, GZD824 (1μM), or GZD824 (3μM) for 24 hours. Lysates were analyzed with antibodies to (A) phospho-SRC and SRC; (B) phospho-STAT3 and STAT3; and (C) phospho-Rb, Rb, and C-Myc. D. qRT-PCR products of BCL-XL, CCND1, CDK4, and CCK[…] mRNA were normalized to GAPDH and presented as fold increase or decrease compared to control, 24 hours after treatment with 3 μM GZD824. E. NALM6 cells were treated with GZD824, SRC inhibitor (KX2-391), STAT3 inhibitor (HO-3867), or DMSO for 24 hours. Statistical analysis of Annexin V-positive cells in 3μM of drug treated NALM6 cells. All data from independent experiments are presented as mean ± SEM. Significance values: ^*P<0.05; ^**P<0.01; ^***P<0.001. RNA was extracted using TRIzol reagent (15596-026, Invitrogen, Grand Island, NY, USA), according to the manufacturer's recommended protocol. qRT-PCR was performed using Applied Biosystems StepOne and StepOne Plus Real-Time PCR Systems (Foster City, CA, USA). The experiments were repeated a minimum of three times to confirm the results."}, "[4]": {"system": "phosphorylated AKT (Ser473)", "experiment": "Western blot of primary pre-B ALL cells", "format": "cell-based, human", "settings": "GZD824 1μM, IGF-1 10ng/ML, 24 hours", "description": "(§2) Figure 6 GZD824 inhibits PI3K/AKT signaling in pre-B ALL cells A. Cells were harvested from PB, SP, and BM of P#2 xenograft mice and cultured with or without 1μM GZD824 for 24h. Bars represent the mean percentages of AnnexinV+ cells in each group. B. Primary pre-B ALL cells from spleen of P#1 xenograft mouse treated with DMSO, GZD824 (1μM), IGF-1 (10ng/ML), or both. Bars represent the mean percentages of AnnexinV+ cells in each group. C. Western blot analysis of NALM6 cells. Cells were treated with DMSO, GZD824 (1μM), or GZD824 (3μM) for 24 hours. Lysates were analyzed with antibodies against IRS1, phosphate AKT, and AKT. D. Western blot analysis of primary pre-B ALL cells. Primary cells treated with GZD824 (1μM), IGF-1 (10ng/ML), or both for 24 hours. Lysates were analyzed with antibodies against Irs1, phosphate AKT, and AKT.\n(§3) For Western blot analysis, 30 μg of total protein extracts prepared from NALM6 or primary pre-B ALL cells from SP of PDX mice were separated on SDS-PAGE and transferred to a PVDF membrane (Bio-Rad, Hercules, CA, USA). The following commercially available antibodies and dilutions were used for Western blotting: human anti-STAT3 (ab119352, Abcam, UK), human anti-phospho-STAT3 (Y705) (ab76315, Abcam, UK), human anti-SRC (ab32102, Abcam, UK), human anti-phospho-SRC (Y419) (ab185617, Abcam, UK), human anti-RB (9313, Cell Signaling Technology, MA, USA), human anti-phospho–RB (Ser807/811) (8516, Cell Signaling Technology, MA, USA), human anti-C-myc (13987, Cell Signaling Technology, MA, USA), anti-AKT (pan) (4691P, Cell Signaling Technology, MA, USA), anti-phospho-AKT (Ser473) (4060P, Cell Signaling Technology, MA, USA), anti-IRS-1 (2390S, Cell Signaling Technology, MA, USA), and human anti–β-actin (4970, Cell Signaling Technology, MA, USA). Western blot analysis was performed with cell lines or primary pre-B ALL cells from SP following GZD824 treatment, and signal intensities were normalized to β-actin signals."}, "[5]": {"system": "IRS1", "experiment": "Western blot of primary pre-B ALL cells", "format": "cell-based, human", "settings": "GZD824 1μM, IGF-1 10ng/ML, 24 hours", "description": "as §2, §3"}},
  "data": [
    {"compound": "Cc1ccc(C(=O)Nc2ccc(CN3CCN(C)CC3)c(C(F)(F)F)c2)cc1C#Cc1cnc2[nH]ncc2c1", "note": "[GZD824]", "values": [
      {"measurement": "IC50", "setting": "[1]", "value": "> 500", "unit": "nM"},
      {"measurement": "IC50", "setting": "[2]", "value": 500, "unit": "nM"},
      {"measurement": "BCL-XL mRNA expression", "setting": "[3]", "value": "downregulation"},
      {"measurement": "CCKN1A (CDKN1A) mRNA expression", "setting": "[3]", "value": "upregulated"},
      {"measurement": "CCND1 mRNA expression", "setting": "[3]", "value": "downregulation"},
      {"measurement": "CDK4 mRNA expression", "setting": "[3]", "value": "downregulation"},
      {"measurement": "levels of phosphorylated AKT (Ser473)", "setting": "[4]", "value": "reduction"},
      {"measurement": "levels of IRS1", "setting": "[5]", "value": "reduction"}
    ]}
  ]
}
